Test results from ChEMBL document CHEMBL5325492, “PROTACs Targeting MLKL Protect Cells from Necroptosis” (J Med Chem, 2023).
pEC50: −log10 of the molar value. Calls of active or inactive are those of the source. No cut-off for these calls is given here.

Assays:
[1] = molecular target: T1, Protein cereblon/Mixed lineage kinase domain-like protein (Homo sapiens, UniProt Q8NB16+Q96SW2); assay: PROTAC activity at CRBN/MLKL in human HT-29 cells assessed as degraded protein level in cell lysates incubated for 24 hrs measured by capillary immunoassay relative to vehicle treated control; format: subcellular
[2] = molecular target: T1, Protein cereblon/Mixed lineage kinase domain-like protein; assay: PROTAC activity at CRBN/MLKL in TSZ-induced human HT29 cells assessed as suppression of phosphorylated protein in cell lysates at 10 uM incubated for 4 hrs measured by capillary immunoassay; format: subcellular; conditions: HT-29
Target sequence in this assay (Q96SW2 whole entry, looked up, one chain of several, the tested form may be a part): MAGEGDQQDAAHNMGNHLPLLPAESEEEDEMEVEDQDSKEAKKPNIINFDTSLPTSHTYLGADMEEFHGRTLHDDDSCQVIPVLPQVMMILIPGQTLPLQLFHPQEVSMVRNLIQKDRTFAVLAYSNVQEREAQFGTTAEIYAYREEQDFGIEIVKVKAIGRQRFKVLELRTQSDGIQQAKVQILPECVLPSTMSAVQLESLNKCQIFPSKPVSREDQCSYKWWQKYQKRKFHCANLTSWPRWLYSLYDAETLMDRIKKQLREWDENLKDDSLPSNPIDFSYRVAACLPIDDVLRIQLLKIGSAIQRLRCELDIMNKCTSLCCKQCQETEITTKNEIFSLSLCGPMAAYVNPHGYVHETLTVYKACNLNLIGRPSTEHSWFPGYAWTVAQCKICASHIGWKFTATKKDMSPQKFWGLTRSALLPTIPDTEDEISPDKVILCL

[3] = molecular target: T1, Protein cereblon/Mixed lineage kinase domain-like protein; assay: PROTAC activity at CRBN/MLKL in TSZ-induced human HT29 cells assessed as suppression of phosphorylated protein in cell lysates at 10 uM incubated for 8 hrs measured by capillary immunoassay; format: subcellular; conditions: HT-29
Target sequence in this assay (Q96SW2 whole entry, looked up, one chain of several, the tested form may be a part): as above

[4] = molecular target: T1, Protein cereblon/Mixed lineage kinase domain-like protein; assay: PROTAC activity at CRBN/MLKL in TSZ-induced human HT29 cells assessed as remaining protein level in cell lysates preincubated with MG-132 for 30 mins followed by treated at 10 uM for 8 hrs measured by capillary immunoassay; format: subcellular; conditions: HT-29
Target sequence in this assay (Q96SW2 whole entry, looked up, one chain of several, the tested form may be a part): as above

[5] = molecular target: T1, Protein cereblon/Mixed lineage kinase domain-like protein; assay: PROTAC activity at CRBN/MLKL in human HT29 cells assessed as remaining protein level in cell lysates incubated for 72 hrs measured by capillary immunoassay; format: subcellular; conditions: HT-29
Target sequence in this assay (Q96SW2 whole entry, looked up, one chain of several, the tested form may be a part): as above

[6] = molecular target: Protein cereblon/Mixed lineage kinase domain-like protein (Mus musculus) (UniProt Q8C7D2+Q9D2Y4); assay: PROTAC activity at CRBN/MLKL in mouse NIH-3T3 cells assessed as remaining protein level in cell lysates at 0.1 to 10 uM incubated for 24 hrs measured by capillary immunoassay; format: subcellular; conditions: dose 0.1-10 µM
HT-29 [7] = assay: Cytotoxicity against human HT-29 cells assessed as cell viability at 10 uM incubated for 24 hrs in presence of lenalidomide by CellTiter-Glo assay; format: toxicity, cell-based; conditions: ht-29, 24 h
[8] = molecular target: Protein cereblon/Receptor-interacting serine/threonine-protein kinase 2 (Homo sapiens) (UniProt O43353+Q96SW2); assay: PROTAC activity at CRBN/RIPK2 in human HT29 cells assessed as remaining protein level in cell lysates at 10 uM incubated for 24 hrs measured by capillary immunoassay relative to vehicle treated control; format: subcellular; conditions: HT-29
[9] = molecular target: T1, Protein cereblon/Mixed lineage kinase domain-like protein; assay: PROTAC activity at CRBN/MLKL in human HEK-a cells assessed as remaining protein level in cell lysates at 0.1 to 10 uM incubated for 24 hrs measured by capillary immunoassay; format: subcellular; conditions: dose 0.1-10 µM
Target sequence in this assay (Q96SW2 whole entry, looked up, one chain of several, the tested form may be a part): as above

[10] = molecular target: T1, Protein cereblon/Mixed lineage kinase domain-like protein; assay: PROTAC activity at CRBN/MLKL in human HT-29 cells assessed as degraded protein level in cell lysates at 10 uM incubated for 24 hrs measured by capillary immunoassay relative to vehicle treated control; format: subcellular
Target sequence in this assay (Q96SW2 whole entry, looked up, one chain of several, the tested form may be a part): as above

[11] = molecular target: T1, Protein cereblon/Mixed lineage kinase domain-like protein; assay: PROTAC activity at CRBN/MLKL in human HK-2 cells assessed as remaining protein level in cell lysates at 0.1 to 10 uM incubated for 24 hrs measured by capillary immunoassay; format: subcellular; conditions: dose 0.1-10 µM
[12] = molecular target: T1, Protein cereblon/Mixed lineage kinase domain-like protein; assay: PROTAC activity at CRBN/MLKL in human MKN74 cells assessed as remaining protein level in cell lysates at 0.1 to 10 uM incubated for 24 hrs measured by capillary immunoassay; format: subcellular; conditions: dose 0.1-10 µM
HT-29 [13] = assay: Cytotoxicity against human HT-29 cells assessed as cell viability at 10 uM incubated for 24 hrs in presence of 3-(4-((difluoromethyl)sulfonamido)phenyl)-5-((3-methoxyphenyl)amino)-1H-pyrazole-4-carboxamide by CellTiter-Glo assay; format: toxicity, cell-based; conditions: ht-29, 24 h
[14] = molecular target: Receptor-interacting serine/threonine-protein kinase 3 (Homo sapiens) (UniProt Q9Y572); assay: Binding affinity to wild type human RIPK3 (M1/Q307) expressed in bacterial expression system measured upto 10 uM by Eurofins-DiscoverX KINOMEscanTM KdELECT assay
[15] = molecular target: T1, Protein cereblon/Mixed lineage kinase domain-like protein; assay: PROTAC activity at CRBN/MLKL in human HT29 cells assessed as remaining protein level in cell lysates at 10 uM incubated upto 8 hrs measured by capillary immunoassay relative to vehicle treated control; format: subcellular; conditions: HT-29
[16] = molecular target: T1, Protein cereblon/Mixed lineage kinase domain-like protein; assay: PROTAC activity at CRBN/MLKL in human HT29 cells assessed as remaining protein level in cell lysates at 10 uM incubated upto 5 hrs measured by capillary immunoassay relative to vehicle treated control; format: subcellular; conditions: HT-29
[17] = molecular target: T2, Mixed lineage kinase domain-like protein (Homo sapiens) (UniProt Q8NB16); assay: Induction of MLKL degradation in human HT-29 cells assessed as remaining protein level in cell lysates incubated for 24 hrs measured by capillary immunoassay; format: subcellular
T2 sequence (whole entry): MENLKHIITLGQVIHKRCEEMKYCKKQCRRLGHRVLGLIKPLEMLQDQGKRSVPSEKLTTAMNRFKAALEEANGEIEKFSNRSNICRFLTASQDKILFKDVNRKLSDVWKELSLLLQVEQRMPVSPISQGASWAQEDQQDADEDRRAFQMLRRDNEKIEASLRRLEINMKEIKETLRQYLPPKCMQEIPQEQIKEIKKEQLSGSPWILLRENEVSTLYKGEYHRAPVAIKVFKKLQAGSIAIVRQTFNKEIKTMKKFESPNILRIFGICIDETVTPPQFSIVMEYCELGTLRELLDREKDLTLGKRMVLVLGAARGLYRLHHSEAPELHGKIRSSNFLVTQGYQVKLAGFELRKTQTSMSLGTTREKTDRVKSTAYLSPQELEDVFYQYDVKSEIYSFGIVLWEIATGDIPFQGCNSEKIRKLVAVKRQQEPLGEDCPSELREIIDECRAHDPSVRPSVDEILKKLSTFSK

[18] = molecular target: Protein cereblon/Receptor-interacting serine/threonine-protein kinase 1 (Homo sapiens) (UniProt Q13546+Q96SW2); assay: PROTAC activity at CRBN/RIPK1 in human HT29 cells assessed as remaining protein level in cell lysates at 10 uM incubated for 24 hrs measured by capillary immunoassay relative to vehicle treated control; format: subcellular; conditions: HT-29
[19] = molecular target: T3, Receptor-interacting serine/threonine-protein kinase 1 (Homo sapiens) (UniProt Q13546); assay: Binding affinity to wild type human RIPK1 (M1/K305) expressed in bacterial expression system measured upto 10 uM by Eurofins-DiscoverX KINOMEscanTM KdELECT assay
T3 sequence (whole entry): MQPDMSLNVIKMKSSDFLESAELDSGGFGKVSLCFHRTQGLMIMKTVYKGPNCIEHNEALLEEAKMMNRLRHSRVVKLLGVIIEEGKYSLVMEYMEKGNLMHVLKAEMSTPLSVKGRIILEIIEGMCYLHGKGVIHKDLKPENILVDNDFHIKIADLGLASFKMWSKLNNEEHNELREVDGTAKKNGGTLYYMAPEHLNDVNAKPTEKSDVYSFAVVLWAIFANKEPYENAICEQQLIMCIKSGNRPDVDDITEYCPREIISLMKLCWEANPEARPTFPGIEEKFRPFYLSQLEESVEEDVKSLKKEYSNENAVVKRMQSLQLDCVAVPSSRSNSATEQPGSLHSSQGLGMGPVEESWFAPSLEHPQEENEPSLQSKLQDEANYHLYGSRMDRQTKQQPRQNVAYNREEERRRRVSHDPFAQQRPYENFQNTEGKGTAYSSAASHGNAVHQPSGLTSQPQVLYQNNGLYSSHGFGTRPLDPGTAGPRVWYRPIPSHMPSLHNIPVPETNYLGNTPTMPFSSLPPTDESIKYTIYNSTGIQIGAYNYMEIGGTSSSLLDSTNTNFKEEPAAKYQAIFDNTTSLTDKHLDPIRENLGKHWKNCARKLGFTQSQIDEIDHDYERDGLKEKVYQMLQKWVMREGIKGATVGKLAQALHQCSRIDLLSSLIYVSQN

HT-29 [20] = assay: Protection against TSZ-induced necroptosis in human HT-29 cells assessed as cell viability incubated for 24 hrs by CellTiter Glo assay; conditions: HT-29, 24 h

Sequence of Receptor-interacting serine/threonine-protein kinase 3 (Homo sapiens) (Q9Y572 whole entry, looked up, the tested form may be a part): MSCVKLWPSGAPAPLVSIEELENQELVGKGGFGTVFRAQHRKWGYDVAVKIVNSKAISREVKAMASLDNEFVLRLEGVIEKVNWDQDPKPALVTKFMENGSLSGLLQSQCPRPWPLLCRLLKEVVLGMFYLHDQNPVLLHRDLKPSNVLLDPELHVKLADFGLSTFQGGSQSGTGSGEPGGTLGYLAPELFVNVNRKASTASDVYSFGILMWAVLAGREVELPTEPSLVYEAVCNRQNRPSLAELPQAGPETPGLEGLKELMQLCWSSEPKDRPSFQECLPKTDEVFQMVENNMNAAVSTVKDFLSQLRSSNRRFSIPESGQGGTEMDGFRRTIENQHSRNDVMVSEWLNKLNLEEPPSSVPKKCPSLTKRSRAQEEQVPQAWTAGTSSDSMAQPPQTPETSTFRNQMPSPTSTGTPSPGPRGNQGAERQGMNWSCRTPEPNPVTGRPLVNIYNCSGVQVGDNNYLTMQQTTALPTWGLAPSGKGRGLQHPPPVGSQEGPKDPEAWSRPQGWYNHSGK
Sequence of Protein cereblon/Receptor-interacting serine/threonine-protein kinase 1 (Homo sapiens) (Q96SW2 whole entry, looked up, one chain of several): as the sequence (Q96SW2 whole entry, looked up, one chain of several, the tested form may be a part) above
Sequence of Protein cereblon/Mixed lineage kinase domain-like protein (Mus musculus) (Q8C7D2 whole entry, looked up, the tested form may be a part): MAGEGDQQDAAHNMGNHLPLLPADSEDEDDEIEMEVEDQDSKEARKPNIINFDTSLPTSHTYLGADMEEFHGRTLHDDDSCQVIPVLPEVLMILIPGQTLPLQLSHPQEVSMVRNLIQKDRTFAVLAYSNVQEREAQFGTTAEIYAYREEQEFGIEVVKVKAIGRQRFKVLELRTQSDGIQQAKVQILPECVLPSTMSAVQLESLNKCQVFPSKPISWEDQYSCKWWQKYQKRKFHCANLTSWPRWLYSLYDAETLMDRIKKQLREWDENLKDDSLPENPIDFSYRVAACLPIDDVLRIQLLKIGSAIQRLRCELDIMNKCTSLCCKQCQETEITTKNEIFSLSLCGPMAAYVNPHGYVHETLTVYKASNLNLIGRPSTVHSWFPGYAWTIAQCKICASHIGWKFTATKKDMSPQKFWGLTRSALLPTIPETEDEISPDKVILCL
Sequence of Protein cereblon/Mixed lineage kinase domain-like protein (Mus musculus) (Q9D2Y4 whole entry, looked up, the tested form may be a part): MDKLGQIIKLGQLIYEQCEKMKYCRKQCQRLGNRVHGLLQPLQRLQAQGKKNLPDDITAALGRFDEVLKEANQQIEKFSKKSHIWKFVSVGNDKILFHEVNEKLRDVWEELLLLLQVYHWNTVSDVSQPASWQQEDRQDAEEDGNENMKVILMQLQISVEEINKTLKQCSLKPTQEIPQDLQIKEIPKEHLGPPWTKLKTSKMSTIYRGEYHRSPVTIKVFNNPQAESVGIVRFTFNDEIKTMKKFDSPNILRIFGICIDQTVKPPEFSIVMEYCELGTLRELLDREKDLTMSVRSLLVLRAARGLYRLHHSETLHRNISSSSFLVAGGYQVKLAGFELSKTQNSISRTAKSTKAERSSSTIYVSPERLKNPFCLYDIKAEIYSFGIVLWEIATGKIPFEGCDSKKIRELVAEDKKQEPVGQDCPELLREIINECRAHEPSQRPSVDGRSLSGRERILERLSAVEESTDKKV
Sequence of Protein cereblon/Receptor-interacting serine/threonine-protein kinase 2 (Homo sapiens) (O43353 whole entry, looked up, the tested form may be a part): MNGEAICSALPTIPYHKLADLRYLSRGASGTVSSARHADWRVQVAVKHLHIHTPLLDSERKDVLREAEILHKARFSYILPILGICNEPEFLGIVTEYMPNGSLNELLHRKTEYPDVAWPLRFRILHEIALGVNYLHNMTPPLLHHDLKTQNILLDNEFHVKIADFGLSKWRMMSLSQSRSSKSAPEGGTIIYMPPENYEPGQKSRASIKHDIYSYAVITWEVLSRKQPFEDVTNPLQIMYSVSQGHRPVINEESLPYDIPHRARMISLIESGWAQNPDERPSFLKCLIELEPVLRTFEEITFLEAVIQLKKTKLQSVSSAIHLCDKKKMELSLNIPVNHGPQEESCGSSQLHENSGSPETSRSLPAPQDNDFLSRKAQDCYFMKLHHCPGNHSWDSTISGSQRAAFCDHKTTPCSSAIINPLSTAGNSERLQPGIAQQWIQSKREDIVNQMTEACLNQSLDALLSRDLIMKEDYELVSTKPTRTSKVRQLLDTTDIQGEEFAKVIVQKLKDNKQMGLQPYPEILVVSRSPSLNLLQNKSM
Sequence of Protein cereblon/Receptor-interacting serine/threonine-protein kinase 2 (Homo sapiens) (Q96SW2 whole entry, looked up, the tested form may be a part): as the sequence (Q96SW2 whole entry, looked up, one chain of several, the tested form may be a part) above

## COc1ccc(C(=O)N2CCC3(CCN(C(=O)CCCCCCCOc4cccc(Nc5[nH]nc(-c6ccc(NS(=O)(=O)C(F)F)cc6)c5C(N)=O)c4)CC3)CC2)cc1N1CCC(=O)NC1=O
[1]
  pEC50: 5.62
[1]; dose 0.1-10 µM
  Activity: Dose-Dependent Effect
[2]
  Activity: Active
[3]
  Activity: Active
[4]
  Activity: inactive
[5]
  Activity: Active
[6]
  Activity: Active
HT-29 [7]
  Activity: Non-Toxic
[8]
  Activity: inactive
[9]
  Activity: Active
[10]
  Activity: > 90%
[11]
  Activity: Active
[12]
  Activity: Active
HT-29 [13]
  Activity: Non-Toxic
[14]
  Activity: inactive
[15]
  Activity: Active
[16]
  Activity: < 10%
[17]
  Activity: inactive
[18]
  Activity: inactive
[19]
  Activity: inactive
HT-29 [20]
  pEC50: 5.92
